The values that follow come from patent US9120812B2, “Pyrimidooxazocine derivatives as mTOR-inhibitors” (SANOFI, priority 2012, dated 2015).

Each structure is given as a SMILES string.

Experiment [1] has as its target mTOR (human recombinant aa mTOR 1360-2549) (Homo sapiens (Human), UniProt P42345). As to the kind of experiment: mTOR enzymatic test by TR-FRET (phosphorylation of GFP-4EBP1). The format is biochemical. A digest of the protocol: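 TR-FRET detection of GFP-4EBP1 phosphorylation by a terbium-labelled anti-phospho-Thr46 antibody. Kinase reaction ran 30 min at room temperature, was quenched with EDTA (10 mM final) plus Tb-antibody (2 nM final) and left 60 min. Emission at 520 and 490 nm after 340 nm excitation, reported as the 520/490 ratio.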
On the technique in general: Time-resolved FRET reads energy transfer from a long-lived donor to a nearby acceptor.

Another experiment concerns the target PI3Kα (p110α/p85α) (Homo sapiens (Human), UniProt P42336). Briefly: PI3Kα enzymatic test by measuring the consumption of ATP. The format is biochemical. The method, boiled down: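 p110α/p85α (1.7 μg/ml) with 50 μM PIP2 and 2 μM ATP in pH 7.5 Tris buffer with EGTA, MgCl2, Chaps, DTT; reaction 90 min. Remaining ATP measured by luciferin/luciferase luminescence; IC50 from threefold serial dilutions spanning at least 10 000-fold.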

Another experiment has as its system U87MG tumour cells. Briefly: Test of in vitro proliferation of U87MG tumour cells. The format is cell-based. The following applies: Homo sapiens, U-87 MG, 72 h, U87MG cells, 72 hours; read-out: U87 Cell Proliferation IC50. On the procedure:
Model 4: Test of in vitro Proliferation of U87MG Tumour Cells.
The cell growth is determined with the reagent CellTiter 96 AQueous One Solution Cell Proliferation Assay from Promega (Cat. No. G3581).

The next experiment deals with Akt-pS473 in U87MG cells. The following applies: Homo sapiens, U-87 MG, read-out: U87 Akt-pS473 % Inhibition or IC50, nM (IC50), U87MG cells.

Sequence of PI3Kα (p110α/p85α) (P42336 whole entry): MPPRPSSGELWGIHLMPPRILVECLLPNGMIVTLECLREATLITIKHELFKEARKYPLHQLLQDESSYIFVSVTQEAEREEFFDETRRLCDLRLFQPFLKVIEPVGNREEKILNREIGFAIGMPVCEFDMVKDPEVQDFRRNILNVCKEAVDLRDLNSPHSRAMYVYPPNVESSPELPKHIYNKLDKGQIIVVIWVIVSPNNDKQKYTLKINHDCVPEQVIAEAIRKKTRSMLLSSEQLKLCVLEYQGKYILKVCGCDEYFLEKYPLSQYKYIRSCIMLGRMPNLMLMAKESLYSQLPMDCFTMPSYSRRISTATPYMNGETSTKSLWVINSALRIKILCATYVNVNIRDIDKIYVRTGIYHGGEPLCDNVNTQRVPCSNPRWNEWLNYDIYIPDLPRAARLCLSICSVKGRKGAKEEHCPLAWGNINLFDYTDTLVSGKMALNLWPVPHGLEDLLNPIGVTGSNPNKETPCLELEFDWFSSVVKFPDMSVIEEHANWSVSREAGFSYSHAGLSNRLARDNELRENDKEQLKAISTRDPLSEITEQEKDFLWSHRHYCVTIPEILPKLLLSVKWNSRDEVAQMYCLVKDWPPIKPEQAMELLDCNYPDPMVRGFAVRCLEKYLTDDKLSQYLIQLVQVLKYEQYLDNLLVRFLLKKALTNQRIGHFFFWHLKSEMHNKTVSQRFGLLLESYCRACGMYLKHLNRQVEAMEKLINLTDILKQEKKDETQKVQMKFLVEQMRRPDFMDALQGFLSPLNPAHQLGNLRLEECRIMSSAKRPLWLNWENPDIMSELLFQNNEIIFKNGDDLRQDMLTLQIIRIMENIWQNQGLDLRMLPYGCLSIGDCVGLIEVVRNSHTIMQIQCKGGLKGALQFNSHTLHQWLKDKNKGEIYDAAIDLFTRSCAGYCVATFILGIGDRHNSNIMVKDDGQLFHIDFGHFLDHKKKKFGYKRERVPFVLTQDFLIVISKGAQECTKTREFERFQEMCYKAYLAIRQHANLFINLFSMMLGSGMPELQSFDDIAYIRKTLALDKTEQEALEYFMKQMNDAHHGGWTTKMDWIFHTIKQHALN
Sequence of PI3Kα (p110α/p85α) (P27986 whole entry partner): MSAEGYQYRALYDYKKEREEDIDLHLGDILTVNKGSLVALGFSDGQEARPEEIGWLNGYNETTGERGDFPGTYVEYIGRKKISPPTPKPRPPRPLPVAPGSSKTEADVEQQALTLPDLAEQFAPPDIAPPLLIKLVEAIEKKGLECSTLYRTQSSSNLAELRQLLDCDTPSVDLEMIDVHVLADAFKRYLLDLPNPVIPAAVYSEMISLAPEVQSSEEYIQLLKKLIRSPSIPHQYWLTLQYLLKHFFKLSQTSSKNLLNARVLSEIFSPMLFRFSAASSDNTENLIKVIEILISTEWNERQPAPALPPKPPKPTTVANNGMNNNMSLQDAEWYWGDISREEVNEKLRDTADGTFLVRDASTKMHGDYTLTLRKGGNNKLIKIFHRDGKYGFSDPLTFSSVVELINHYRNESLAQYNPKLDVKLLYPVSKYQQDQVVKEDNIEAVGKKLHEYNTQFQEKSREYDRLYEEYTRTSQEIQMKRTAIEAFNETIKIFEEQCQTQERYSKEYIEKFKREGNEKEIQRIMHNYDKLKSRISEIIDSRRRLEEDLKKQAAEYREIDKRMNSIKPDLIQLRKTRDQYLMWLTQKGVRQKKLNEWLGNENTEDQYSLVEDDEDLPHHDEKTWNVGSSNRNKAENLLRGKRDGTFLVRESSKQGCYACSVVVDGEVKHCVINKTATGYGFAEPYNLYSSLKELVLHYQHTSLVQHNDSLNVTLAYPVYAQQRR
Sequence of mTOR (human recombinant aa mTOR 1360-2549) (P42345 1360-2549): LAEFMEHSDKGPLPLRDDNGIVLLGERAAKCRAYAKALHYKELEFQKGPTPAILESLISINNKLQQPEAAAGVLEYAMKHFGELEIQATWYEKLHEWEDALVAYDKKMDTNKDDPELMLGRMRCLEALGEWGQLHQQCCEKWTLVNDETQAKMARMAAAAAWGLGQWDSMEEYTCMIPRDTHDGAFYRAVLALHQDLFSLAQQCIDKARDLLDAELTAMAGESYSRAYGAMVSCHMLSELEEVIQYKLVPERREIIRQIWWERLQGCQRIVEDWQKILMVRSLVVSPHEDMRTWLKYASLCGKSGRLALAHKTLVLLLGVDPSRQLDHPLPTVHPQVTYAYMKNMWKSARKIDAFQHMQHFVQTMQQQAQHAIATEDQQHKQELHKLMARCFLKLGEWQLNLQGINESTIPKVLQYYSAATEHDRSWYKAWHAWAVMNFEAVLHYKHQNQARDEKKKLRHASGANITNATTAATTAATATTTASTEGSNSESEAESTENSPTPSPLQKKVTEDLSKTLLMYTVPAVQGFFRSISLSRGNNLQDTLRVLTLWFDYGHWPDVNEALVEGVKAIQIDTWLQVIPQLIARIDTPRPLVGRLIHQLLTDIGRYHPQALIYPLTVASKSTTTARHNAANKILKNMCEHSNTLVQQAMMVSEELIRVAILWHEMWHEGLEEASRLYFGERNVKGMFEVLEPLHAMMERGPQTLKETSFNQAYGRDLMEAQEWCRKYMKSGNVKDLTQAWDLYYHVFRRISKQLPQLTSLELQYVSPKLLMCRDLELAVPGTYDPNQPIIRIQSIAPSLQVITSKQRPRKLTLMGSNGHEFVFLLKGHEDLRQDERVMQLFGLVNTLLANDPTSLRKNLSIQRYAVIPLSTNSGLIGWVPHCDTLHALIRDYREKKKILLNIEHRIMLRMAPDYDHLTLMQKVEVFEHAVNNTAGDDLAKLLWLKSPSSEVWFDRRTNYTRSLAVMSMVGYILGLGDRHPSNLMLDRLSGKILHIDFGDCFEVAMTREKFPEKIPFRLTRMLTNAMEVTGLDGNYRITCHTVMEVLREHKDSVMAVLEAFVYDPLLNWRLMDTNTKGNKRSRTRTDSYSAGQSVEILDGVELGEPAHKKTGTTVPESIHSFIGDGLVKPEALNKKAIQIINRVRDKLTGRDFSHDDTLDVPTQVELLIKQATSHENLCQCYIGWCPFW

As to `CN1CC(C)(C)Oc2nc(N3CC4CCC(C3)O4)nc(-c3ccc(NC(=O)Nc4ccncc4F)cc3)c2C1=O` [Example 85, 1-(3-Fluoropyridin-4-yl)-3-{4-[6,8,8-trimethyl-2-(8-oxa-3-azabicyclo[3.2.1]oct-3-yl)-5-oxo-5,6,7,8-tetrahydro-9-oxa-1,3,6-triazabenzocyclohepten-4-yl]phenyl}urea], the IC50 is 24 nM in experiment [1], 77 nM in the experiment with U87MG tumour cells and 28 nM in the experiment with Akt-pS473 in U87MG cells. Besides, the “PI3Ka IC50” value at PI3Kα (p110α/p85α) is 1950 nM.

In the case of `CCN1CC(C)(C)Oc2nc(N3CC4CCC(C3)O4)nc(-c3ccc(NC(=O)Nc4ccc(CN5CCCCC5)cc4)cc3)c2C1=O` [Example 203, 1-{4-[6-Ethyl-8,8-dimethyl-2-(8-oxa-3-azabicyclo[3.2.1]oct-3-yl)-5-oxo-5,6,7,8-tetrahydro-9-oxa-1,3,6-triazabenzocyclohepten-4-yl]phenyl}-3-(4-piperidin-1-ylmethylphenyl)urea], the values for the IC50 (in experiment [1]; in the experiment with U87MG tumour cells; with Akt-pS473 in U87MG cells) were 96 nM, 43 nM and 111 nM, respectively. The “PI3Ka IC50” value at PI3Kα (p110α/p85α) worked out at 9610 nM.

`CCNC(=O)Nc1ccc(-c2nc(N3CC4CCC(C3)O4)nc3c2C(=O)N(C2CCOCC2)CC(C)(C)O3)cc1` [Example 14, 1-{4-[8,8-dimethyl-2-(8-oxa-3-azabicyclo[3.2.1]oct-3-yl)-5-oxo-6-(tetrahydropyran-4-yl)-5,6,7,8-tetrahydro-9-oxa-1,3,6-triazabenzocyclohepten-4-yl]phenyl}-3-ethylurea]: the IC50 was 41 nM in experiment [1], 1420 nM in the experiment with U87MG tumour cells and 458 nM in the experiment on Akt-pS473 in U87MG cells. For the same molecule, on PI3Kα (p110α/p85α), the “PI3Ka IC50” value was over 10000 nM.

For the molecule `CC[C@H]1COCCN1c1ccc(NC(=O)Nc2ccc(-c3nc(N4C5CCC4COC5)nc4c3C(=O)N(CC)CC(C)(C)O4)cc2F)cn1` [Example 249, 1-{4-[6-Ethyl-8,8-dimethyl-2-(3-oxa-8-azabicyclo[3.2.1]oct-8-yl)-5-oxo-5,6,7,8-tetrahydro-9-oxa-1,3,6-triazabenzocyclohepten-4-yl]-2-fluorophenyl}-3-[6-((S)-3-ethylmorpholin-4-yl)pyridin-3-yl]urea], the IC50 in experiment [1] turned out to be 365 nM; with U87MG tumour cells, 29 nM; with Akt-pS473 in U87MG cells it was 27 nM. Besides, the “PI3Ka IC50” value on PI3Kα (p110α/p85α) was over 10000 nM.

`CCN1CC(C)(C)Oc2nc(N3CC4CCC(C3)O4)nc(-c3ccc(NC(=O)Nc4ccc(C(F)(F)F)cc4F)cc3)c2C1=O` [Example 154, 1-{4-[6-Ethyl-8,8-dimethyl-2-(8-oxa-3-azabicyclo[3.2.1]oct-3-yl)-5-oxo-5,6,7,8-tetrahydro-9-oxa-1,3,6-triazabenzocyclohepten-4-yl]phenyl}-3-(2-fluoro-4-trifluoromethylphenyl)urea]: the IC50 came to 182 nM in experiment [1], 97 nM with U87MG tumour cells and 54 nM in the experiment with Akt-pS473 in U87MG cells. Moreover, the “PI3Ka IC50” value at PI3Kα (p110α/p85α) is given as over 10000 nM.

As for `CCNC(=O)Nc1ccc(-c2nc(N3CC4CCC(C3)O4)nc3c2C(=O)N(C[C@@H]2CCCN2)CC(C)(C)O3)cc1F` [Example 4, 1-{4-[8,8-Dimethyl-2-(8-oxa-3-azabicyclo[3.2.1]oct-3-yl)-5-oxo-6-(S)-1-pyrrolidin-2-ylmethyl-5,6,7,8-tetrahydro-9-oxa-1,3,6-triazabenzocyclohepten-4-yl]-2-fluorophenyl}-3-ethylurea], the IC50 is 721 nM in experiment [1], over 10000 nM in the experiment with U87MG tumour cells and over 3000 nM with Akt-pS473 in U87MG cells. Moreover, the “PI3Ka IC50” value on PI3Kα (p110α/p85α) was over 10000 nM.

Regarding `CCN1CC(C)(C)Oc2nc(N3CCOC[C@@H]3C)nc(-c3ccc(NC(=O)Nc4cnc(C)cn4)c(F)c3)c2C1=O` [Example 167, 1-{4-[6-Ethyl-8,8-dimethyl-2-((S)-3-methylmorpholin-4-yl)-5-oxo-5,6,7,8-tetrahydro-9-oxa-1,3,6-triazabenzocyclohepten-4-yl]-2-fluorophenyl}-3-(5-methylpyrazin-2-yl)urea], the IC50 in experiment [1] came out at 62 nM; with U87MG tumour cells, 500 nM; with Akt-pS473 in U87MG cells it was 158 nM. At PI3Kα (p110α/p85α), the “PI3Ka IC50” value worked out at 3520 nM.

Take `CCN1CC(C)(C)Oc2nc(N3CCOC[C@@H]3C)nc(-c3ccc(NC(=O)O[C@H]4CCC[C@H]4O)cc3)c2C1=O` [Example 53, {4-[6-Ethyl-8,8-dimethyl-2-((S)-3-methylmorpholin-4-yl)-5-oxo-5,6,7,8-tetrahydro-9-oxa-1,3,6-triazabenzocyclohepten-4-yl]phenyl}carbamic acid (1S,2R)-2-hydroxycyclopentyl ester]: the IC50 in experiment [1] was 222 nM; in the experiment on U87MG tumour cells it was 2160 nM; in the experiment with Akt-pS473 in U87MG cells, 555 nM. Also, the “PI3Ka IC50” value at PI3Kα (p110α/p85α) is recorded as over 10000 nM.
